From ChEMBL document CHEMBL1201862, “PubChem BioAssay data set” (2004)
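In this assay, cells in 96-well plates receive the compound at five concentrations for 48 hours. Endpoints are linearly interpolated between the surrounding concentrations. GI50 is the concentration that inhibits growth by half.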 Active and inactive are the calls of the source. No stated cut-off is given here; in the data, active = GI50 up to about 1.1 µM and inactive = higher.

Assays:
Assay in all cases: NCI-60 cell line screen, 48 h
PC-3 = tested on: PC-3
UACC-62 = tested on: UACC-62
786-0 = tested on: 786-0
Malme-3M = tested on: Malme-3M
UO-31 = tested on: UO-31
HCT-116 = tested on: HCT-116
T47D = tested on: T47D
HL-60 = tested on: HL-60
A498 = tested on: A498
HT-29 = tested on: HT-29
K562 = tested on: K562
MDA-MB-231 = tested on: MDA-MB-231
ACHN = tested on: ACHN
RPMI-8226 = tested on: RPMI-8226
NCI-H460 = tested on: NCI-H460
OVCAR-3 = tested on: OVCAR-3
MOLT-4 = tested on: MOLT-4
MDA-N = tested on: MDA-N
SNB-19 = tested on: SNB-19
KM12 = tested on: KM12
MCF7 = tested on: MCF7
MDA-MB-435 = tested on: MDA-MB-435
DU-145 = tested on: DU-145
HOP-92 = tested on: HOP-92
A549 = tested on: A549
LOX IMVI = tested on: LOX IMVI
RXF 393 = tested on: RXF 393
BT-549 = tested on: BT-549
COLO 205 = tested on: COLO 205
IGROV-1 = tested on: IGROV-1
SK-MEL-28 = tested on: SK-MEL-28
SK-OV-3 = tested on: SK-OV-3
SN12C = tested on: SN12C
OVCAR-5 = tested on: OVCAR-5
SF-295 = tested on: SF-295
M14 = tested on: M14
SF-268 = tested on: SF-268
SR = tested on: SR
NCI-H226 = tested on: NCI-H226
HOP-62 = tested on: HOP-62
TK-10 = tested on: TK-10
CCRF-CEM = tested on: CCRF-CEM
SW-620 = tested on: SW-620
SK-MEL-5 = tested on: SK-MEL-5
UACC-257 = tested on: UACC-257
HCC 2998 = tested on: HCC 2998
OVCAR-4 = tested on: OVCAR-4
NCI-H23 = tested on: NCI-H23
OVCAR-8 = tested on: OVCAR-8
SNB-75 = tested on: SNB-75
U-251 = tested on: U-251
SF-539 = tested on: SF-539
NCI-H522 = tested on: NCI-H522
EKVX = tested on: EKVX
Hs-578T = tested on: Hs-578T
HCT-15 = tested on: HCT-15
SK-MEL-2 = tested on: SK-MEL-2
CAKI-1 = tested on: CAKI-1
NCI/ADR-RES = tested on: NCI/ADR-RES

SMILES: Cc1nc2ccccc2c(=O)n1NC(=O)c1ccc(N)cc1
- GI50 (PC-3): > 100 µM (inactive)
- GI50 (UACC-62): > 100 µM (inactive)
- GI50 (786-0): > 100 µM (inactive)
- GI50 (Malme-3M): > 100 µM (inactive)
- GI50 (UO-31): > 100 µM (inactive)
- GI50 (HCT-116): > 100 µM (inactive)
- GI50 (T47D): > 100 µM (inactive)
- GI50 (HL-60): > 100 µM (inactive)
- GI50 (A498): > 100 µM (inactive)
- GI50 (HT-29): > 100 µM (inactive)
- GI50 (K562): > 100 µM (inactive)
- GI50 (MDA-MB-231): > 100 µM (inactive)
- GI50 (ACHN): > 100 µM (inactive)
- GI50 (RPMI-8226): > 100 µM (inactive)
- GI50 (NCI-H460): > 100 µM (inactive)
- GI50 (OVCAR-3): > 100 µM (inactive)
- GI50 (MOLT-4): > 100 µM (inactive)
- GI50 (MDA-N): > 100 µM (inactive)
- GI50 (SNB-19): > 100 µM (inactive)
- GI50 (KM12): > 100 µM (inactive)
- GI50 (MCF7): > 100 µM (inactive)
- GI50 (MDA-MB-435): > 100 µM (inactive)
- GI50 (DU-145): > 100 µM (inactive)
- GI50 (HOP-92): > 100 µM (inactive)
- GI50 (A549): > 100 µM (inactive)
- GI50 (LOX IMVI): > 100 µM (inactive)
- GI50 (RXF 393): > 100 µM (inactive)
- GI50 (BT-549): > 100 µM (inactive)
- GI50 (COLO 205): > 100 µM (inactive)
- GI50 (IGROV-1): > 100 µM (inactive)
- GI50 (SK-MEL-28): > 100 µM (inactive)
- GI50 (SK-OV-3): > 100 µM (inactive)
- GI50 (SN12C): > 100 µM (inactive)
- GI50 (OVCAR-5): > 100 µM (inactive)
- GI50 (SF-295): > 100 µM (inactive)
- GI50 (M14): > 100 µM (inactive)
- GI50 (SF-268): > 100 µM (inactive)
- GI50 (SR): > 100 µM (inactive)
- GI50 (NCI-H226): > 100 µM (inactive)
- GI50 (HOP-62): > 100 µM (inactive)
- GI50 (TK-10): > 100 µM (inactive)
- GI50 (CCRF-CEM): > 100 µM (inactive)
- GI50 (SW-620): > 100 µM (inactive)
- GI50 (SK-MEL-5): 17.8 µM (inactive)
- GI50 (UACC-257): > 100 µM (inactive)
- GI50 (HCC 2998): > 100 µM (inactive)
- GI50 (OVCAR-4): > 100 µM (inactive)
- GI50 (NCI-H23): > 100 µM (inactive)
- GI50 (OVCAR-8): > 100 µM (inactive)
- GI50 (SNB-75): 14.6 µM (inactive)
- GI50 (U-251): > 100 µM (inactive)
- GI50 (SF-539): > 100 µM (inactive)
- GI50 (NCI-H522): > 100 µM (inactive)
- GI50 (EKVX): > 100 µM (inactive)

SMILES: O=c1c(Cl)c(Cl)c(=O)c2sc3cc(Cl)ccc3[nH]c1=2
- GI50 (PC-3): 32.6 µM (inactive)
- GI50 (UACC-62): 23.4 µM (inactive)
- GI50 (786-0): > 100 µM (inactive)
- GI50 (Malme-3M): 40.1 µM (inactive)
- GI50 (UO-31): 18.2 µM (inactive)
- GI50 (HCT-116): 33 µM (inactive)
- GI50 (T47D): 25.9 µM (inactive)
- GI50 (HL-60): 7.73 µM (inactive)
- GI50 (A498): > 100 µM (inactive)
- GI50 (Hs-578T): 39 µM (inactive)
- GI50 (HT-29): > 100 µM (inactive)
- GI50 (K562): 15.5 µM (inactive)
- GI50 (HCT-15): 42.3 µM
- GI50 (MDA-MB-231): 2.04 µM (inactive)
- GI50 (ACHN): 53.1 µM (inactive)
- GI50 (RPMI-8226): 4 µM (inactive)
- GI50 (SK-MEL-2): > 100 µM (inactive)
- GI50 (NCI-H460): > 100 µM (inactive)
- GI50 (OVCAR-3): 15 µM (inactive)
- GI50 (MOLT-4): 2.47 µM (inactive)
- GI50 (SNB-19): 78.9 µM (inactive)
- GI50 (KM12): > 100 µM (inactive)
- GI50 (MCF7): 73.3 µM (inactive)
- GI50 (MDA-MB-435): 34 µM (inactive)
- GI50 (DU-145): > 100 µM (inactive)
- GI50 (HOP-92): 16.7 µM (inactive)
- GI50 (A549): > 100 µM (inactive)
- GI50 (RXF 393): 66.4 µM (inactive)
- GI50 (BT-549): 2.81 µM (inactive)
- GI50 (COLO 205): 90.4 µM (inactive)
- GI50 (IGROV-1): 10.5 µM (inactive)
- GI50 (SK-MEL-28): > 100 µM (inactive)
- GI50 (SK-OV-3): > 100 µM (inactive)
- GI50 (CAKI-1): > 100 µM (inactive)
- GI50 (OVCAR-5): 29.6 µM (inactive)
- GI50 (SF-295): 70.8 µM (inactive)
- GI50 (M14): 40.5 µM (inactive)
- GI50 (SF-268): 38.6 µM (inactive)
- GI50 (SR): 7.48 µM (inactive)
- GI50 (NCI-H226): 27.3 µM (inactive)
- GI50 (HOP-62): > 100 µM (inactive)
- GI50 (TK-10): 65.6 µM (inactive)
- GI50 (NCI/ADR-RES): 5.36 µM (inactive)
- GI50 (SW-620): 20.3 µM (inactive)
- GI50 (SK-MEL-5): 25.1 µM (inactive)
- GI50 (UACC-257): 15.3 µM (inactive)
- GI50 (OVCAR-4): 5.66 µM (inactive)
- GI50 (NCI-H23): 23.3 µM (inactive)
- GI50 (OVCAR-8): 14.5 µM (inactive)
- GI50 (SNB-75): 47.4 µM (inactive)
- GI50 (U-251): 31.4 µM (inactive)
- GI50 (SF-539): 43 µM (inactive)
- GI50 (NCI-H522): 16.1 µM (inactive)
- GI50 (EKVX): 14 µM (inactive)
